Experimental data published in PubChem BioAssay (NCI).
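A five-concentration, 48-hour dose response in 96-well plates underlies each endpoint, interpolated linearly between surrounding concentrations. TGI denotes the concentration required for complete inhibition of growth.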

Columns and labels:
Assay in all cases: DTP human tumour cell line panel, 48 h
SK-MEL-28 melanoma = test system: SK-MEL-28 melanoma
MDA-MB-231 breast = test system: MDA-MB-231 breast
DU-145 prostate = test system: DU-145 prostate
SF-539 CNS = test system: SF-539 CNS
K-562 leukemia = test system: K-562 leukemia
UO-31 renal = test system: UO-31 renal
NCI-H23 lung = test system: NCI-H23 lung
NCI-H522 lung = test system: NCI-H522 lung
SN12C renal = test system: SN12C renal
RPMI-8226 leukemia = test system: RPMI-8226 leukemia
OVCAR-4 ovarian = test system: OVCAR-4 ovarian
SF-295 CNS = test system: SF-295 CNS
TK-10 renal = test system: TK-10 renal
OVCAR-8 ovarian = test system: OVCAR-8 ovarian
HOP-92 NSCLC = test system: HOP-92 NSCLC
SK-OV-3 ovarian = test system: SK-OV-3 ovarian
LOX IMVI melanoma = test system: LOX IMVI melanoma
M14 melanoma = test system: M14 melanoma
A498 renal = test system: A498 renal
PC-3 prostate = test system: PC-3 prostate
HCC-2998 colon = test system: HCC-2998 colon
COLO 205 colon = test system: COLO 205 colon
UACC-62 melanoma = test system: UACC-62 melanoma
MALME-3M melanoma = test system: MALME-3M melanoma
T-47D breast = test system: T-47D breast
NCI/ADR-RES ovarian = test system: NCI/ADR-RES ovarian
OVCAR-5 ovarian = test system: OVCAR-5 ovarian
NCI-H226 lung = test system: NCI-H226 lung
U251 CNS = test system: U251 CNS
OVCAR-3 ovarian = test system: OVCAR-3 ovarian
MDA-MB-435 = test system: MDA-MB-435
SK-MEL-5 melanoma = test system: SK-MEL-5 melanoma
SW-620 colon = test system: SW-620 colon
HS 578T breast = test system: HS 578T breast
BT-549 breast = test system: BT-549 breast
KM12 colon = test system: KM12 colon
NCI-H460 lung = test system: NCI-H460 lung
A549 NSCLC = test system: A549 NSCLC
CAKI-1 renal = test system: CAKI-1 renal
SF-268 CNS = test system: SF-268 CNS
HCT-116 colon = test system: HCT-116 colon
MDA-N = test system: MDA-N
IGROV1 ovarian = test system: IGROV1 ovarian
HL-60(TB) leukemia = test system: HL-60(TB) leukemia
HCT-15 colon = test system: HCT-15 colon
RXF 393 renal = test system: RXF 393 renal
CCRF-CEM leukemia = test system: CCRF-CEM leukemia
MOLT-4 leukemia = test system: MOLT-4 leukemia
HT29 colon = test system: HT29 colon
EKVX NSCLC = test system: EKVX NSCLC
ACHN renal = test system: ACHN renal
MCF7 breast = test system: MCF7 breast
SK-MEL-2 melanoma = test system: SK-MEL-2 melanoma
SR leukemia = test system: SR leukemia
SNB-19 CNS = test system: SNB-19 CNS
UACC-257 melanoma = test system: UACC-257 melanoma
HOP-62 NSCLC = test system: HOP-62 NSCLC
786-0 renal = test system: 786-0 renal

Measured: TGI

CC(=O)NCCC1CNc2ccccc21 (centres undefined)
not listed: HOP-62 NSCLC | 786-0 renal
> 100 µM: all other assays above

C1CSC(Sc2nc(SC3=NCCS3)nc(SC3=NCCS3)n2)=N1
> 100 µM: all assays above
